Laboratory results: patent US20240360135A1, “IMIDAZO[1,2-B]PYRIDAZINYL COMPOUNDS AND USES THEREOF” (Sumitomo Pharma Oncology, Inc., priority 2021, published 2024)

Key:
PIM3 = target: T1, PIM3 (Homo sapiens, UniProt Q86V86); assay: RBC HotSpot kinase inhibition assay, PIM3; format: biochemical
T1 construct: purchased Millipore 14-738
Description: (§1) Reagents. Base Reaction Buffer: 20 mM Hepes (pH 7.5), 10 mM MgCl2, 1 mM EGTA, 0.01% Brij35, 0.02 mg/ml BSA, 0.1 mM Na3VO4, 2 mM DTT, 1% DMSO. The following kinases were used in the assay at the indicated concentrations:
(§2) The following substrates were used in combination with the indicated kinases in the assay at the indicated concentration:
(§3) No cofactors were added to any of the reactions.
(§4) • 1. Prepared substrate in freshly prepared Reaction Buffer. • 2. Delivered kinase into the substrate solution and gently mixed. • 3. Delivered test compound in 100% DMSO into the kinase reaction mixture by Acoustic technology (Echo550; nanoliter range), incubated for 20 minutes at room temperature. • 4. Delivered ^33P-ATP into the reaction mixture to initiate the reaction. • 5. Incubated for 2 hours at room temperature. • 6. Detected kinase activity by P81 filter-binding method.
(§5) The results of the RBC HotSpot™ kinase assay are set forth in Table 1, wherein “A” indicates an IC50<10 nM, “B” indicates an IC50 wherein 10 nM≤IC50≤100 nM, and “C” indicates an IC50>100 nM.

PIM1 = target: T2, PIM1 (Homo sapiens, UniProt P11309); assay: RBC HotSpot kinase inhibition assay, PIM1; format: biochemical
T2 construct: purchased Invitrogen PV3503
Description: as §1, §2, §3, §4, §5

PIM2 = target: T3, PIM2 (Homo sapiens, UniProt Q9P1W9); assay: RBC HotSpot kinase inhibition assay, PIM2; format: biochemical
T3 construct: purchased Invitrogen PR6347B
Description: as §1, §2, §3, §4, §5

mouse psoriasis models = conditions: cited from earlier work
A549 cells = assay: Wound healing assay in A549 cells with TGF-β; format: cell-based; conditions: Homo sapiens; wound healing, A549, 5 ng/ml TGF-β, 24 h; read-out: IC50 (μM) 24 h
Description: Overview. Epithelial to mesenchymal transition (EMT) is used to describe epithelial cells losing their cell to cell adhesion and polarity while gaining migratory and invasive properties. The process of EMT is required for normal embryonic development and wound healing, but has also been implicated in fibrosis. In humans, TGF-β signaling is the main driver of EMT, and inhibiting this pathway may be beneficial in various diseases such as fibrosis. A wound healing assay was used to study cell migration and cell-cell interaction, and probe the EMT properties of lung epithelial cells (A549) in presence of Compound 2 or Compound 4.
Procedure. A549 cells (ATCC, CCL-185) were seeded into the ImageLock plate (Essen Bioscience) at 2×10^4 cells/well in 100 μL of complete growth media. Cells were incubated overnight at 37° C., 5% CO2. The next day, cells were washed with 1×PBS and Compound 2, Compound 4, DMSO control (±TGF-β) or galunisertib (TGF-β inhibitor used as positive control) was added to the cells in a serum-free F12K media (0.2% DMSO final, 10 μM starting concentration, 3-fold dilution, 8-doses) in presence of 5 ng/ml TGF-β. Cells were incubated for 48 hours (until they reached confluency) at 37° C., 5% CO2. Wounds were simultaneously created using a WoundMaker™ (Essen Bioscience). Debris and non-attached cells were removed by gently washing once with F12K.
Test compound or control compound and TGF-β were added to the cells in F12K+10% FBS as previously described. The ImageLock plate was put into IncuCyteS3 instrument installed inside a 5% CO2 incubator. The plate was allowed to equilibrate in the IncuCyteS3 instrument for 15 minutes prior to scheduling the first scan and data recording. The plate was incubated for 72 hours at 37° C., and wound closure was recorded in real time with the IncuCyte S3 imaging system. Percentage of relative wound density was quantitatively calculated by the IncuCyte software.

T2 sequence (P11309 whole entry): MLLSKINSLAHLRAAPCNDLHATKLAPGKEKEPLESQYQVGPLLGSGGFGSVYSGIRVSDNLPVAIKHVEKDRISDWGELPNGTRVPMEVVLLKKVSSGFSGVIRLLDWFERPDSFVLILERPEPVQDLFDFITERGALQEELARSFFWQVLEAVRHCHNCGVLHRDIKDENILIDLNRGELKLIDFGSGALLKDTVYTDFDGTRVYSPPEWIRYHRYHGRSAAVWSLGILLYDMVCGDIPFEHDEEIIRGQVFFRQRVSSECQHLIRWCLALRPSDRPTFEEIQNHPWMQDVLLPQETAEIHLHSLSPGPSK
T3 sequence (Q9P1W9 whole entry): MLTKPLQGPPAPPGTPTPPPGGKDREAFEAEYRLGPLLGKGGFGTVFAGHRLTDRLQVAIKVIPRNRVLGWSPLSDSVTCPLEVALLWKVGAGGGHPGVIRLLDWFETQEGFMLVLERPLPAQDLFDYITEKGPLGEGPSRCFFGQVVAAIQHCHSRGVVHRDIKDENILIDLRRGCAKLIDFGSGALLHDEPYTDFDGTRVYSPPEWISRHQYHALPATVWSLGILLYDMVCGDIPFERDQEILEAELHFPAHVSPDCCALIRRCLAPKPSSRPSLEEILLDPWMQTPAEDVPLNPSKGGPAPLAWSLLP

Q: Which results are given for `CCc1cc(-c2cnc3ccc(NC45CCC(C(C)(C)O)(CC4)CC5)nn23)n[nH]1` [Compound 6, 2-(4-((3-(5-ethyl-1H-pyrazol-3-yl)imidazo[1,2-b]pyridazin-6-yl)amino)bicyclo[2.2.2]octan-1-yl)propan-2-ol]?
A: IC50 (PIM3): < 10 nM; IC50 (PIM1): < 10 nM; IC50 (PIM2): > 100 nM

Q: With `CN1CCC(CNc2ccc3ncc(-c4cccc(OC(F)(F)F)c4)n3n2)CC1` [SGI-1776] as the compound, how does the epidermal thickening (mouse psoriasis models) read?
A: partial reduction

Q: And the vascularization (mouse psoriasis models)?
A: partial reduction

Q: Which IC50 (PIM3) does the source give for `OC12CCC(Nc3ccc4ncc(-c5cc(C6CC6)[nH]n5)n4n3)(CC1)C2` [Compound 5, 4-((3-(5-cyclopropyl-1H-pyrazol-3-yl)imidazo[1,2-b]pyridazin-6-yl)amino)bicyclo[2.2.1]heptan-1-ol] here?
A: 10 to 100 nM

Q: And the IC50 (PIM1)?
A: 10 to 100 nM

Q: What about the IC50 (PIM2) of the same compound?
A: > 100 nM

Q: For `Cc1cccc(-c2nn3c(c2-c2ccnc4ccc(C(N)=O)cc24)CCC3)n1` [Galunisertib, galunisertib, reference compound], which IC50 (A549 cells) is on record?
A: > 10 µM

Q: For `CCc1cc(-c2cnc3ccc(NC45CCC(O)(CC4)C5)nn23)c[nH]1` [Compound 3, 4-((3-(5-ethyl-1H-pyrrol-3-yl)imidazo[1,2-b]pyridazin-6-yl)amino)bicyclo[2.2.1]heptan-1-ol], which IC50 (PIM3) is on record?
A: 10 to 100 nM

Q: And the IC50 (PIM1)?
A: 10 to 100 nM

Q: What about the IC50 (PIM2) of the same compound?
A: > 100 nM

Q: Which IC50 (PIM3) does the source give for `CCc1cc(-c2cnc3ccc(NC45CCC(O)(CC4)C5)nn23)n[nH]1` [Compound 7, 4-((3-(5-ethyl-1H-pyrazol-3-yl)imidazo[1,2-b]pyridazin-6-yl)amino)bicyclo[2.2.1]heptan-1-ol] here?
A: 10 to 100 nM

Q: And the IC50 (PIM1)?
A: 10 to 100 nM

Q: What about the IC50 (PIM2) of the same compound?
A: > 100 nM

Q: Which IC50 (PIM3) does the source give for `Cc1cc(-c2cnc3ccc(NC45CCC(O)(CC4)C5)nn23)n[nH]1` [Compound 1, 4-((3-(5-methyl-1H-pyrazol-3-yl)imidazo[1,2-b]pyridazin-6-yl)amino)bicyclo[2.2.1]heptan-1-ol] here?
A: > 100 nM

Q: What about the IC50 (PIM1) of the same compound?
A: > 100 nM

Q: What about the IC50 (PIM2) of the same compound?
A: > 100 nM
